Results from US20240207249A1, “COMPOSITIONS AND METHODS FOR TREATING, PREVENTING OR REVERSING AGE-ASSOCIATED INFLAMMATION AND DISORDER” (Brown University, priority 2019, published 2024).
pKi: −log10 of the molar value. Entries after “also recorded” stand apart in the source; their conditions may differ. Where two headings read alike, the source gives them in different places.

How the values were obtained:
L1 EN = L1 EN (Homo sapiens (Human), UniProt O00370); assay: fluorescent oligonucleotide nicking assay; assay type: biochemical
L1 retrotransposition = L1 retrotransposition dual-luciferase reporter cellular assay in HeLa-M2 cells; assay type: cell-based, human; conditions: for Cellular assay: retrotransposition efficiency (mean ± SD): Table 2
[1] = target: human L1 EN domain (1-239) (Homo sapiens (Human), UniProt O00370); assay: plasmid nicking L1 EN activity biochemical assay
[2] = tested on: L1 EN domain in HeLa Tet-On cells; assay: L1-induced DNA damage, γ-H2AX immunofluorescence and neutral comet assay, EN domain-only expression; assay type: cell-based, human
APE-1 = APE-1 (Homo sapiens (Human), UniProt P27695); conditions: cited from earlier work
[3] = tested on: senescent human diploid fibroblasts (LF1); assay: RNA-seq transcriptomic analysis of senescent cells; assay type: cell-based; conditions: IFN gene set and aging gene set
[4] = tested on: full-length L1 (ORF1 and ORF2) in HeLa Tet-On cells; assay: L1-induced DNA damage, γ-H2AX immunofluorescence, full-length L1 expression; assay type: cell-based, human
[5] = tested on: senescent human diploid fibroblasts (LF1); assay: RT-qPCR of inflammatory markers in replicative senescent cells; assay type: cell-based
HeLa cells = conditions: human
[6] = solubility remark in cellular assay column; conditions: reason for no cellular data
[7] = in vitro assays with purified EN

Chain of human L1 EN domain (1-239) (O00370 1-239): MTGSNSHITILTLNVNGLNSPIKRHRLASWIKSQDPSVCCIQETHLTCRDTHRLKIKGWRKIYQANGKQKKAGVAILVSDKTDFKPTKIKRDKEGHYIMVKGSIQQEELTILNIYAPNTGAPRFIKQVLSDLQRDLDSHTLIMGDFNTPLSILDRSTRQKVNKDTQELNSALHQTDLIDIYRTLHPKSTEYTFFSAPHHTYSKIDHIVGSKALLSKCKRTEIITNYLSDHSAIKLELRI
Chain of L1 EN (O00370 1-239): as above
Chain of APE-1 (P27695 whole entry): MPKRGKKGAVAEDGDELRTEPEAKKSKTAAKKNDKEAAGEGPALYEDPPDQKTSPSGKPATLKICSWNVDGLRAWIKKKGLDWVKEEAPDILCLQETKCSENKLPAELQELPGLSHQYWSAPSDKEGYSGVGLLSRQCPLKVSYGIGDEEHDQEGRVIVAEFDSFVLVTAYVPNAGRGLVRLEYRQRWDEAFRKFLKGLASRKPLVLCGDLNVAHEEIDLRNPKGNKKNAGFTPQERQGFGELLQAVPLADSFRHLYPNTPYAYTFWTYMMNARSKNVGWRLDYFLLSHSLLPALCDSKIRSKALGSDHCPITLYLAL

Biochemical assay: concentration at maximum inhibition ([1]; plasmid nicking assay)	Biochemical assay: maximum inhibition ([1]; plasmid nicking assay)	L1 EN inhibition in the biochemical assay (in words) [1]	SMILES	effect on retrotransposition in the cellular reporter assay (in words) (L1 retrotransposition)	Biochemical assay: concentration at maximum inhibition [1]	Biochemical assay: maximum inhibition [1]	other results
750 μM FIG. 2H	80% inhibition at	–	C[C@H]1C[C@H](C)CN(CCCNc2ccc(C(=O)Nc3ccc(C(F)(F)F)cc3)cc2[N+](=O)[O-])C1 [AD9]	high activity in the retrotransposition assay	–	–	in vitro activity against EN (in words) (L1 EN; [7]): relatively low efficacy in vitro
500 μM FIG. 20	50% inhibition at	effective in the biochemical assay	Nn1cnn2c(SCC(=O)Cc3ccc(-c4nc5cc(NC(=O)CSc6nnc7n(N)cnn67)ccc5o4)cc3)nnc12 [AD16]	–	–	–	inhibition of L1-induced DNA damage (in words) ([2]; EN domain-only): better efficacy
–	No inhibition	did not inhibit the L1 EN	CCn1c2ccccc2c2cc(/C=N\Nc3cc(C)nc4cc5c(cc34)OCO5)ccc21 [AD1, reference compound]	–	–	–	pKi (APE-1): 6.92
–	–	–	O=[N+]([O-])c1ccc(Nc2ccc(Nc3ccccc3)c(S(=O)(=O)O)c2)c([N+](=O)[O-])c1 [AD4]	–	1 mM FIG. 2D	100% inhibition at	–
–	–	–	C[C@@H](Nc1ccc([N+](=O)[O-])cc1[N+](=O)[O-])C(=O)O [AD8]	–	15 mM FIG. 2G	100% inhibition at	–
–	–	–	O=C(Cn1nc(-c2ccc(Br)cc2)ccc1=O)NC[C@H]1CC[C@H](C(=O)O)CC1 [AD43]	high activity in the retrotransposition assay	–	–	in vitro activity against EN (in words) (L1 EN; [7]): relatively low efficacy in vitro
–	–	–	COc1ccc2c(c1)C(=O)N(CCc1ccc(S(=O)(=O)NC(=O)NC3CCCCC3)cc1)C(=O)C2(C)C [AD12, Gliquidone, reference compound]	reduced retrotransposition in the cellular reporter assay; also recorded: high activity in the retrotransposition assay; also recorded: best inhibition in the retrotransposition assay	–	–	gene set expression by RNA-seq (in words) [3]: decreased expression; inhibition of L1-induced DNA damage (in words) [4]: best inhibition; effect on inflammatory markers in senescent cells (in words) ([5]; 1 month treatment): show efficacy
–	–	–	Cc1ccc(NC(=O)CSc2nc(-c3ccccc3F)nc3c2Cc2c(CO)cnc(C)c2O3)cc1 [AD28]	–	–	–	Toxicity at concentration (HeLa cells): Toxicity at 2.5 μM
750 μM FIG. 2Q	50% inhibition at	effective in the biochemical assay	O=C(Nc1ccc(S(=O)(=O)NCc2ccco2)cc1)c1cc(NS(=O)(=O)c2cccs2)cc(NS(=O)(=O)c2cccs2)c1 [AD18]	did not significantly impact retrotransposition in cells	–	–	in vitro activity against EN (in words) (L1 EN; [7]): clear activity in vitro
–	–	–	C/C(=N/Nc1ccc([N+](=O)[O-])cc1[N+](=O)[O-])c1ccc(-n2nncc2C(C)(C)C)cc1 [AD7]	high activity in the retrotransposition assay	500 μM FIG. 2F	80% inhibition at	in vitro activity against EN (in words) (L1 EN): relatively low efficacy in vitro
750 μM FIG. 2F	90% inhibition at	–	Cc1cc([N+](=O)[O-])ccc1NC(=S)NC(=O)C(c1ccccc1)c1ccccc1 [AD6]	–	–	–	Cellular assay: retrotransposition efficiency (mean ± SD) (L1 retrotransposition; 10 μM): 10 μM: 79.1
–	–	–	COc1ccc([N+](=O)[O-])cc1NC(=O)c1ccc2c(c1)N(Cc1cc(C)ccc1C)C(=O)c1ccccc1S2(=O)=O [AD34]	did not significantly impact retrotransposition in cells	–	–	in vitro activity against EN (in words) (L1 EN; [7]): clear activity in vitro
100 μM FIG. 21	100% inhibition at	–	O=C(NC(NC(=O)c1ccccc1)c1cccc([N+](=O)[O-])c1)c1ccccc1 [AD10]	–	–	–	Cellular assay: retrotransposition efficiency (mean ± SD) (L1 retrotransposition; 50 μM): 50 μM: 68.9
–	–	–	O=C(NCCCCCCNC(=O)Nc1cccc([N+](=O)[O-])c1)Nc1cccc([N+](=O)[O-])c1 [AD32]	high activity in the retrotransposition assay	–	–	in vitro activity against EN (in words) (L1 EN): relatively low efficacy in vitro
250 μM FIG. 2R	75% inhibition at	effective in the biochemical assay	COc1ccccc1NC(=O)Nc1nc(Nc2ccc(S(=O)(=O)Nc3nc(C)cc(C)n3)cc2)nc(Oc2cccc(O)c2)n1 [AD19]	–	–	–	–
–	–	–	Cc1cc(=O)oc2c3c(ccc12)O/C(=N/Nc1ccc([N+](=O)[O-])cc1[N+](=O)[O-])C3=O [AD5]	did not significantly impact retrotransposition in cells	50 μM FIG. 2E	100% inhibition	solubility (in words) [6]: (poor solubility); in vitro activity against EN (in words) (L1 EN): clear activity in vitro
–	–	–	C/C(C[C@H](c1ccccc1)c1c(O)c2ccccc2oc1=O)=N\Nc1ccc([N+](=O)[O-])cc1[N+](=O)[O-] [AD3]	best inhibition in the retrotransposition assay	250 μM FIG. 2C	100% inhibition at	inhibition of L1-induced DNA damage (in words) [4]: best inhibition; effect on inflammatory markers in senescent cells (in words) [5]: show efficacy
–	–	–	COc1ccc(OC)c(NS(=O)(=O)c2ccc(NS(=O)(=O)c3cccc([N+](=O)[O-])c3)cc2)c1 [AD36]	high activity in the retrotransposition assay	–	–	in vitro activity against EN (in words) (L1 EN; [7]): relatively low efficacy in vitro
–	–	–	O=C(CCCCCCCCCCC(=O)Nc1cccc([N+](=O)[O-])c1)Nc1cccc([N+](=O)[O-])c1 [AD11]	–	10.0 μM FIG. 2J	100% inhibition at	inhibition of L1-induced DNA damage (in words) [2]: better efficacy

SMILES	Biochemical assay: concentration at maximum inhibition ([1]; plasmid nicking assay)	Biochemical assay: maximum inhibition ([1]; plasmid nicking assay)	L1 EN inhibition in the biochemical assay (in words) [1]	effect on retrotransposition in the cellular reporter assay (in words) (L1 retrotransposition)	Biochemical assay: concentration at maximum inhibition [1]	Biochemical assay: maximum inhibition [1]	other results
CCC1=C(C)CN(C(=O)NCCc2ccc(S(=O)(=O)NC(=O)N[C@H]3CC[C@H](C)CC3)cc2)C1=O [AD15, Glimepiride, reference compound]	2.5 mM FIG. 2N	100% inhibition at	inhibited L1 EN activity in the biochemical assay	reduced retrotransposition in the cellular reporter assay	–	–	Cellular assay: retrotransposition efficiency (mean ± SD) (L1 retrotransposition; 50 μM): 50 μM: 17.1
O=C1c2ccc(Oc3ccc4c(c3)C(=O)N(Nc3ccc([N+](=O)[O-])cc3[N+](=O)[O-])C4=O)cc2C(=O)N1Nc1ccc([N+](=O)[O-])cc1[N+](=O)[O-] [AD13]	–	–	effective in the biochemical assay	–	500 μM FIG. 2L	100% inhibition at	–
O=C(O)[C@H](CCCCNc1ccc([N+](=O)[O-])cc1[N+](=O)[O-])Nc1ccc([N+](=O)[O-])cc1[N+](=O)[O-] [AD2]	–	–	effective against the L1 EN	did not significantly impact retrotransposition in cells	1 mM FIG. 2B	100% inhibition at	pKi (APE-1): 4.89; in vitro activity against EN (in words) (L1 EN): clear activity in vitro
